In patent publication US5599789A, “Method for the treatment of tumours and sarcomas” (Amrad Corporation Limited, priority 1991, dated 1997):

Assays:
Type in all cases: cell-based, human
[1] = tested on: Ewing's Sarcoma cell line Al (uncloned); assay: Colony formation in semi-solid agar cultures, Al (uncloned) cells; details: Al(uncloned), 5,000 cells, day 18
Procedure: (§1) Tumour cells obtained from biopsy and bone marrow specimens from patients with Ewing's Sarcoma were used in these studies. Approval for this project has been obtained from the Ethics Committee of the Royal Children's Hospital.
(§2) Single cell suspensions of tumour cells were obtained by mechanical disruption with an 18G or 21G needle or by pipetting, followed by incubation with dispase II (Boehringer) at a concentration of 1.2 units per ml for 10 minutes at 37° C. Prior to the addition to agar-medium the cells were vortexed gently to prevent clumping.
(§3) Clonal cell lines were grown in Iscove's Modified Dulbecco's Medium (IMDM) supplemented with 10% v/v foetal calf serum (FCS; CSL Limited, Melbourne, Australia) and were passaged either weekly or twice weekly. The characteristics of the Ewing Sarcoma cell lines used herein as described below:
(§4) The tumour cells were immobilised in 0.3% w/v agar containing Iscove's Modified Dulbecco's Medium (IMDM) and 10% v/v FCS. […] Cultures were scored for the presence of colonies (>40 cells) or clusters (<40 cells). The number of cells plated per culture ranged from 500 to 10,000 per ml. Colonies were counted on an Olympus dissecting microscope.
(§5) IL-1, IL-3, IL-4, IL-6, M-CSF, G-CSF, GM-CSF, Stem Cell Factor (SCF), TNFα, TGFα, TGFβ, EGF, aFGF, bFGF, NGF, IGF I, IGF II, PDGF and IFN-γ.
(§6) The recombinant human leukaemia inhibitory factor (LIF) was obtained from AMRAD Corporation Limited, Melbourne, Australia.

[2] = tested on: Ewing's Sarcoma cell line Al-5; assay: Colony formation in semi-solid agar cultures, Al-5 cells; details: Al-5, 1,000 cells, day 18
Procedure: as §1, §2, §3
(§7) Cell lines derived from the above primary cell lines (Al and Cu) are identified by an Arabic numeral (e.g. Al-1, Al-5, Al-8 or Cu-1).
as §4, §5, §6

[3] = tested on: Ewing's Sarcoma cell line Al-8; assay: Colony formation in semi-solid agar cultures, Al-8 cells; details: Al-8, 1,000 cells, day 18
Procedure: as §1, §2, §3, §7, §4, §5, §6

[4] = tested on: Ewing's Sarcoma cell line Al-1; assay: Colony formation in semi-solid agar cultures, Al-1 cells; details: day 18
Procedure: as §1, §2, §3, §7, §4, §5, §6

[5] = tested on: Ewing's Sarcoma cell line Cu-1; assay: Colony formation in semi-solid agar cultures, Cu-1 cells; details: Cu-1, 10,000 cells, day 18
Procedure: as §1, §2, §3, §7, §4, §5, §6

Ewing's Sarcoma cells = assay: Colony formation in agar cultures, a number of different Ewing's cell lines (summary statements); details: doses of Tables 1-3; TNF-α dose far above the physiological dose
Description: as §4

[6] = stimulus 100 ng, mean of duplicate colony counts
[7] = Al-1, 1,000 cells, stimulus 100 ng, mean of duplicate colony counts
[8] = Al-1, 10,000 cells, stimulus 100 ng, mean of duplicate colony counts

## IL-4: commercially available growth factor, used at 1:3000
[1]; stimulus 1:3000
  Colonies/Cultures: 165
[2]; stimulus 1:3000
  Colonies/Cultures: 38
[3]; stimulus 1:3000
  Colonies/Cultures: 82
[4]; Al-1, 1,000 cells, stimulus 1:3000
  Colonies/Cultures: 47
[4]; Al-1, 10,000 cells, stimulus 1:3000
  Colonies/Cultures: 720
[5]; stimulus 1:3000
  Colonies/Cultures: 325

## NGF: commercially available growth factor
[1]; [6]
  Colonies/Cultures: 165
[2]; [6]
  Colonies/Cultures: 32
[3]; [6]
  Colonies/Cultures: 52
[4]; [7]
  Colonies/Cultures: 49
[4]; [8]
  Colonies/Cultures: 810
[5]; [6]
  Colonies/Cultures: 360

## PDGF
[1]; stimulus 30 ng
  Colonies/Cultures: 352
[2]; stimulus 30 ng
  Colonies/Cultures: 39
[3]; stimulus 30 ng
  Colonies/Cultures: 72
[4]; Al-1, 1,000 cells, stimulus 30 ng
  Colonies/Cultures: 47
[5]; stimulus 30 ng
  Colonies/Cultures: 390

## SCF: commercially available growth factor, Stem Cell Factor
[1]; [6]
  Colonies/Cultures: 225
[2]; [6]
  Colonies/Cultures: 42
[3]; [6]
  Colonies/Cultures: 77
[4]; [7]
  Colonies/Cultures: 51
[4]; [8]
  Colonies/Cultures: 950
[5]; [6]
  Colonies/Cultures: 440

## TGFa: commercially available growth factor
[1]; stimulus 20 ng
  Colonies/Cultures: 190
[3]; stimulus 20 ng
  Colonies/Cultures: 87
[5]; stimulus 20 ng
  Colonies/Cultures: 390

## TGFb
[1]; stimulus 5 ng
  Colonies/Cultures: 175
[2]; stimulus 5 ng
  Colonies/Cultures: 41
[3]; stimulus 5 ng
  Colonies/Cultures: 45
[4]; Al-1, 10,000 cells, stimulus 5 ng
  Colonies/Cultures: 540
[5]; stimulus 5 ng
  Colonies/Cultures: 385

## TNFa
[1]; stimulus 5 ug
  Colonies/Cultures: 39
[2]; stimulus 5 ug
  Colonies/Cultures: 0
[3]; stimulus 5 ug
  Colonies/Cultures: 1
[4]; Al-1, 10,000 cells, stimulus 5 ug
  Colonies/Cultures: 2
[5]; stimulus 5 ug
  Colonies/Cultures: 190
Ewing's Sarcoma cells
  Effect on colony counts of the other factors: with the exception of TNF-α showed any effect on colony counts

## aFGF: commercially available growth factor
[1]; [6]
  Colonies/Cultures: 260
[2]; [6]
  Colonies/Cultures: 58
[3]; [6]
  Colonies/Cultures: 128
[4]; [7]
  Colonies/Cultures: 57
[4]; [8]
  Colonies/Cultures: 975
[5]; [6]
  Colonies/Cultures: 520
